From patent US10882852B1, “3-vinylquinolines as cancer cells inhibitors” (King Abdulaziz University, priority 2020, dated 2021)
“And” between values parts separate entries of the source, which are not always exact repeats. Equal entries are not always repeated. Where two headings read alike, the source gives them in different places. Each block holds one molecule with its values, some of them ahead of it.

Key:
[1] = test system: bovine brain tubulin; assay: Tubulin polymerization assay; format: biochemical; details: inhibition of tubulin polymerization; tubulin at 10 μM; read-out: Tubulin assembly IC50 ± SD
Procedure: The assembly of purified bovine tubulin was monitored using a kit, BK006, purchased from Cytoskeleton Inc., (Denver, Colo., USA). The assay was carried out in accordance with the manufacturer's instructions using the standard assay conditions. […] Light is scattered proportionally to the concentration of polymerized microtubules in the assay. Therefore, tubulin assembly was monitored turbidimetrically at 340 nm in a Spectramax 340 PC spectrophotometer (Molecular Devices, Sunnyvale, Calif., USA). The concentration that inhibits tubulin polymerization by 50% (IC50) was determined using area under the curve (AUC). The AUC of the untreated controls were considered as 100% polymerization. The IC50 value for each compound was computed using GraphPad Prism Software.

[2] = test system: MCF-7 cells; assay: Cell cycle analysis by PI flow cytometry; format: cell-based, human; details: MCF-7, 50 nM
Procedure: MCF-7 cells were seeded at a density of 1×10^5 cells/well in 6-well plates and treated with CA-4 (50 nM) and compound 8c (50 and 250 nM) for 24, 48 and 72 hr. The cells were collected by trypsinization and centrifuged at 800×g for 15 min. Cells were washed twice with ice-cold PBS and fixed in ice-cold 70% ethanol overnight at −20° C. Fixed cells were centrifuged at 800×g for 15 min and stained with 50 μg/mL of PI, containing 50 μg/mL of DNase-free RNase A, at 37° C. for 30 min. The DNA content of cells (10,000 cells/experimental group) was analysed by flow cytometer at 488 nm using a FACSCalibur flow cytometer (BD Biosciences, San Jose, Calif.) and all data were recorded and analyzed using the CellQuest Software (Becton-Dickinson).

[3] = test system: HCT-116 colon cancer cells; assay: MTT cell viability assay, HCT-116; format: cell-based, human; details: HCT-116, MTT
Procedure: (§1) All the human tumour cell lines MCF-7, HCT-116, HL-60 and HeLa were cultured in Dulbecco's Modified Eagle's Medium (DMEM) with 10% fetal bovine serum, 2 mM L-glutamine and 100 µg/mL penicillin/streptomycin. Cells were maintained at 37° C. in 5% CO2 in a humidified incubator. All cells were sub-cultured 3 times/week by trypsinization using TrypLE Express (1×).
(§2) The quinoline compounds were evaluated for antiproliferative effect using the MTT viability assay of four cancer cell lines (MCF-7, HCT-116, HL-60 and HeLa) and normal breast cells MCF-10A to calculate the relative IC50 values for each compound. Cells were seeded in triplicate in 96-well plates at a density of 10×10^3 cells/ml in a total volume of 200 μl per well. 0.1% of DMSO was used as a vehicle control. After this time, they were treated with 2 μl test compound which had been pre-prepared as stock solutions in ethanol to furnish the concentration range of study, 1 nM to 50 μM, and re-incubated for a further 72 h. The culture medium was then removed, and the cells washed with 100 μL phosphate buffered saline (PBS) and 50 μL MTT added, to reach a final concentration of 1 mg/mL MTT added. Cells were incubated for 2 h in darkness at 37° C. At this point solubilisation was begun through the addition of […] DMSO and the cells maintained at room temperature in darkness for 20 min to ensure thorough colour diffusion before reading the absorbance. Plates were incubated for 72 hours at 37° C.+5% CO2, The MTT (5 mg/mL in PBS) was added and incubated for another 4 h, the optical density was detected with a microplate reader at 570 nm. Results were expressed as percentage viability relative to vehicle control (100%). Dose response curves were plotted and IC50 values (concentration of drug resulting in 50% reduction in cell survival) were obtained using the commercial software package Prism (GraphPad Software, Inc., La Jolla, Calif., USA). All the experiments were repeated in at least three independent experiments.

[4] = test system: tubulin (colchicine binding site); assay: [3H]colchicine site competitive binding assay; details: inhibition of [3H]colchicine binding
Procedure: The affinity of compounds 8c to colchicine binding site was determined using Colchicine Site Competitive Assay kit CytoDYNAMIX Screen15 (Cytoskeleton, Inc., CO, USA) using the standard protocol of the manufacturer to determine Ki values (μM). Biotin-labelled tubulin ([…]) in 10 μL of reaction buffer was mixed with [3H]colchicine (0.08 μM, PerkinElmer, Waltham, Mass.) and the test compounds (positive control colchicine, negative control vinblastine, G-1, fluorescent G-1, or 2-ME) in a 96-well plate (final volume: 100 μL). After incubating for 2 h at 37° C. with gentle shaking, streptavidin-labelled yttrium SPA beads ([…] in 20 μL reaction buffer, PerkinElmer, Waltham, Mass.) were added to each well and incubated for 30 min at 4° C. The plates were then read on a scintillation counter (Packard Instrument, Topcount Microplate Reader) and the percentage of inhibition was calculated

[5] = test system: HeLa cervical cancer cells; assay: MTT cell viability assay, HeLa; format: cell-based, human
Procedure: as §1, §2

[6] = test system: MCF-7 breast cancer cells; assay: MTT cell viability assay, MCF-7; format: cell-based, human
Procedure: as §1, §2

[7] = test system: HL-60 leukemia cells; assay: MTT cell viability assay, HL-60; format: cell-based, human
Procedure: as §1, §2

[8] = test system: MCF-7 cells; assay: ROS production by H2-DCFDA; format: cell-based, human; details: MCF-7, 50 nM, 24 h; untreated 1.0%
Procedure: Mitochondrial membrane potential (Δψmt) was measured by flow cytometry with DiOC2(3) staining and additional labelling with an annexin V conjugate. After treatment with compound 8c (50 and 250 nM) and CA-4 (50 nM), cells were stained with DiOC2(3) dye for 30 min in the incubator then harvested and washed with PBS. DiOC2(3)-stained cells were resuspended with 1× annexin binding buffer then added annexin V conjugate and incubated at 37° C. for 15 min. Then the data obtained from flow cytometry were analyzed by Cell Quest software. Production of intracellular Reactive oxygen species (ROS) was measured using 2,7-dichlorofluorescin diacetate (H2-DCFDA) dye. MCF-7 cells were seeded and treated either with vehicle (0.1% DMSO) or with compound 8c (50 and 250 nM) and CA-4 (50 nM) for different time 6, 12 and 24 h. H2O2 was used as a positive control. The amount of ROS generated was estimated after 2 h of selected compound treatment. The cells were collected by centrifugation and washed twice with PBS. Cells were then incubated with DCFDA dye (25 μM) in dark at 37° C. for 1 h. Fluorescence spectra (510-600 nm) were monitored using an excitation wavelength of 488 nm

[9] = test system: MCF-7 cells; assay: Annexin V/PI apoptotic assay; format: cell-based, human; details: MCF-7, 50 nM, 48 h; control 1%
Procedure: Apoptotic cell death was detected by flow cytometry using Annexin V and propidium iodide (PI). […] Cells were then harvested and prepared for flow cytometric analysis. Cells were washed in 1× binding buffer (20× binding buffer: 0.1M HEPES, pH 7.4; 1.4 M NaCl; 25 mM CaCl2) diluted in dH2O) and incubated in the dark for 30 minutes on ice in Annexin V-containing binding buffer [1:100]. Cells were then washed once in binding buffer and then re-suspended in […] binding buffer [1:1000]. Samples were analysed immediately using the BD accuri flow cytometer and prism software for analysis the data. Four populations are produced during the assay Annexin V and PI negative (Q4, healthy cells), Annexin V positive and PI negative (Q3, early apoptosis), Annexin V and PI positive (Q2, late apoptosis) and Annexin V negative and PI positive (Q1, necrosis).

[10] = test system: MCF-10A normal epithelial breast cells; assay: MTT cell viability assay, normal breast cells; format: cell-based, human; details: 72 h
Procedure: as §2, with “Dose response curves were plotted and IC50 values (concentration of drug resulting in 50% reduction in cell survival) were obtained using the commercial software package Prism (GraphPad Software, Inc., La Jolla, Calif., USA). All the experiments were repeated in at least three independent experiments.” left out

[11] = test system: MCF-7 cells; assay: Colony formation assay; format: cell-based, human; details: MCF-7, 50 and 250 nM
Procedure: MCF-7 cells (600 cells per well) were seeded in 6-well plates and incubated for 24 h before being then treated with different doses of the compound 8c (50 and 250 nM) for 14 days. […]. Then the cells were washed with PBS twice and subsequently fixed with 4% paraformaldehyde and stained with 0.05% crystal violet for 30 min. Finally, cells were visualized using an inverted microscope.

[12] = test system: pro-apoptotic protein Bax; assay: BAX ELISA in MCF-7 cells; format: cell-based, human; details: MCF-7, 250 nM, 48 h
Procedure: (§3) Bcl-2 content of MCF-7 cells was assessed by ELISA Kit purchased Zymed laboratories, invitrogen immunodetection according to the manufacturer's protocol, and the enzyme concentration was expressed as ng/mL [55]. ELISA Assay for BAX content of MCF-7 cells was assessed by ELISA kit purchased from Cloud-Clone Crop. (USA) according to the manufacturer's protocol, and the enzyme concentration was expressed as ng/mL [56]. In Vitro Caspase-9 Activation Assay was performed using human active caspase-9 Invitrogen EIA kit and the procedure of the used kit was done according to the manufacturer's instructions.

[13] = test system: MCF-7 cells; assay: Wound healing (cell migration) assay; format: cell-based, human; details: MCF-7, 24 h
Procedure: MCF-7 were grown in 6-well plates for 24 h, then the scratches were made using pipette tip and washed with PBS to remove non-adherent cell debris. Subsequently, the cells were treated with different concentrations of 8c for 24 h. The migrations across the wound area were photographed under a phase contrast microscopy.

[14] = test system: anti-apoptotic protein Bcl-2; assay: Bcl-2 ELISA in MCF-7 cells; format: cell-based, human; details: MCF-7, 250 nM, 48 h
Procedure: as §3

[15] = test system: caspase-9; assay: Caspase-9 activation assay in MCF-7 cells; format: cell-based, human; details: MCF-7, 50 nM
Procedure: as §3

SMILES: COc1ccc(/C=C\c2cc(OC)c(OC)c(OC)c2)cc1O [CA-4, Combretastatin A-4, reference compound]
- percentage of cells in G2/M phase ([2]; 24 h): 40.3%
- population in the sub-G1 phase (apoptosis) ([2]; 24 h): 23.5%
- population in the sub-G1 phase (apoptosis) ([2]; 48 h): 31.1%
- percentage of cells in G2/M phase ([2]; 48 h, control 9.2%): 43.8%
- percentage of cells in G2/M phase ([2]; 72 h): 47.7%
- population in the sub-G1 phase (apoptosis) ([2]; 72 h): 37.4%
- IC50 ([3]; 72 h, read-out: IC50 value (μM) HCT-116): 0.026 ± 0.001 µM
- Colchicine binding % ± SD, 1 μM drug [4]: 86% and 86 ± 0.9%
- Colchicine binding % ± SD, 5 μM drug [4]: 97% and 97 ± 2%
- IC50 ([5]; 72 h, read-out: IC50 value (μM) HeLa): 0.064 ± 0.004 µM
- IC50 ([6]; MCF-7, MTT, 72 h, read-out: IC50 value (μM) MCF-7): 0.019 ± 0.004 µM
- IC50 ([7]; HL-60, MTT, 72 h, mean ± spread of three experiments, read-out: IC50 value (μM) HL-60): 0.076 ± 0.004 µM
- ROS generation [8]: 18.3%
- Annexin V-staining positive cells (total apoptotic cells) [9]: 29%
- IC50 [10]: 6.1 µM

- IC50 [1]: 1.2 µM and 1.21 µM
- IC50 ([3]; Homo sapiens, read-out: IC50 in HCT-116): 0.0225 µM
- Colchicine binding % ± SD, 1 μM drug [4]: 79% and 79 ± 2%
- Colchicine binding % ± SD, 5 μM drug [4]: 87% and 87 ± 1%
- IC50 ([5]; Homo sapiens, read-out: IC50 in HeLa): 0.0427 µM
- IC50 ([6]; Homo sapiens, MCF7, MCF-7, MTT, read-out: IC50 in MCF-7): 0.0107 µM
- IC50 ([6]; MCF-7, MTT, read-out: IC50 in MCF-7): 0.0191 µM
- IC50 ([7]; HL-60, MTT, read-out: IC50 in HL-60): 0.0107 µM
- IC50 ([7]; Homo sapiens, HL-60, HL-60, MTT, read-out: IC50 in HL-60): 0.0191 µM
SMILES: COc1cc(C2=NC(=Cc3cc4ccc(C)cc4nc3OC)C(=O)O2)cc(OC)c1OC [Compound 8c, 4-[(2-Methoxy-7-methylquinolin-3-yl)methylene]-2-(3,4,5-trimethoxyphenyl)oxazol-5(4H)-one]
- inhibition of colony formation [11]: inhibited the colony formation in a dose dependent manner
- expression of pro-apoptotic protein Bax [12]: up-regulation in the expression
- inhibition of cell migration (wound healing) [13]: migration inhibition in a dose dependent manner
- Annexin V-staining positive cells (total apoptotic cells) [9]: 15%
- expression level of anti-apoptotic protein Bcl-2 [14]: decrease in the expression level
- fold increase in caspase-9 expression [15]: about 6 fold
